# In patent US20120214847A1, “2-[1-PHENYL-5-HYDROXY-4a-SUBSTITUTED-HEXAHYDROCYCLOPENTA[F]INDAZOL-5-YL]ETHYL PHENYL DERIVATIVES AS GLUCOCORTICOID RECEPTOR LIGANDS” (Merck Sharp & Dohme Corp., priority 2009, published 2012):
# Target: T1, glucocorticoid receptor (Homo sapiens, UniProt P04150)
# T1 construct: endogenous in cells; host or cells: HeLa (ATCC) cell lysate supernatant
# T1 sequence (P04150 1-777): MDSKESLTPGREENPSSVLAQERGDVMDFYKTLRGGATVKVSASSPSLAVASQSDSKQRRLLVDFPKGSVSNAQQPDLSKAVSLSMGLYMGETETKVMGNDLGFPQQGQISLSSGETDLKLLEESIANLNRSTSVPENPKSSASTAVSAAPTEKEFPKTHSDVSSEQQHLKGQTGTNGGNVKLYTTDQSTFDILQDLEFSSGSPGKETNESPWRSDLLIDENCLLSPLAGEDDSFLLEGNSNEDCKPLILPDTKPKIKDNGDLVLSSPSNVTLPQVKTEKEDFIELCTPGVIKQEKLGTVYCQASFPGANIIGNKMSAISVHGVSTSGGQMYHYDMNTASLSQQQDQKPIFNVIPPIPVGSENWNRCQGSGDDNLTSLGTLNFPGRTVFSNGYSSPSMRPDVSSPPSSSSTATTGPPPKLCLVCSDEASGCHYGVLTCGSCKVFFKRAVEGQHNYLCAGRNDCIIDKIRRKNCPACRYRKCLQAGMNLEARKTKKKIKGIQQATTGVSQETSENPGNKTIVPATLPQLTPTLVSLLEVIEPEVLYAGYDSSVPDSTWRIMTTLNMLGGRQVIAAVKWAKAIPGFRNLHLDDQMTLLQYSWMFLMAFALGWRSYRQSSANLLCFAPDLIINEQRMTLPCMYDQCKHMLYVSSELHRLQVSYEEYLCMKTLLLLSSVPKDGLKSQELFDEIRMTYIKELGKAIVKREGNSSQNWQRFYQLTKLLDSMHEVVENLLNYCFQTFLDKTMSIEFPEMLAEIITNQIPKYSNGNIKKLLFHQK
# Assay: Ligand binding assay (GRBind), 3H-dexamethasone displacement in HeLa cell lysate
# Conditions: 3H-DEX tracer
# Summary of the method: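 Cytosolic supernatant from HeLa cells in TEGM buffer (pH 7.2, with molybdate) was incubated overnight at 4 °C with 3H-dexamethasone (6 nM trace solution) and serially diluted compound, with 2% ethanol. Bound receptor was captured on hydroxylapatite, filtered and counted by scintillation. IC50s were calculated using dexamethasone as reference.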
row,Structure (SMILES),Ki [nM]
1,"COc1ccnc(CC[C@]2(O)CCC3=Cc4c(cnn4-c4ccc(F)cc4)C[C@@]32C2CC2)c1C(F)C(N)=O (stereo partly drawn) [Example 66, 2-(2-{2-[(4aR,5R)-4a-Cyclopropyl-1-(4-fluorophenyl)-5-hydroxy-1,4,4a,5,6,7-hexahydrocyclopenta[f]indazol-5-yl]ethyl}-4-methoxypyridin-3-yl)-2-fluoroacetamide]",1.82
2,"CC[C@]12Cc3cnn(-c4ccc(F)cc4)c3C=C1CC[C@@]2(O)CC(O)c1ncccc1Cl (stereo partly drawn) [Example 70, (4aS,5R)-5-[2-(3-Chloropyridin-2-yl)-2-hydroxyethyl]-4a-ethyl-1-(4-fluorophenyl)-1,4,4a,5,6,7-hexahydrocyclopenta[f]indazol-5-ol]",7.06
3,"CC[C@]12Cc3cnn(-c4ccc(F)cc4)c3C=C1CC[C@@]2(O)CC(O)c1cc(C#N)ccn1 (stereo partly drawn) [Example 72, 2-{2-[(4aS,5R)-4a-Ethyl-1-(4-fluorophenyl)-5-hydroxy-1,4,4a,5,6,7-hexahydrocyclopenta[f]indazol-5-yl]-1-hydroxyethyl}pyridine-4-carbonitrile]",6.25
4,"CC[C@]12Cc3cnn(-c4ccc(F)cc4)c3C=C1CC[C@@]2(O)CC(O)c1c(F)ccnc1Cl (stereo partly drawn) [Example 74, (4aS,5R)-5-[2-(2-Chloro-4-fluoropyridin-3-yl)-2-hydroxyethyl]-4a-ethyl-1-(4-fluorophenyl)-1,4,4a,5,6,7-hexahydrocyclopenta[f]indazol-5-ol]",9.35
5,"CC[C@]12Cc3cnn(-c4ccc(F)cc4)c3C=C1CC[C@@]2(O)CC(O)c1ncccc1F (stereo partly drawn) [Example 76, (4aS,5R)-4a-Ethyl-1-(4-fluorophenyl)-5-[2-(3-fluoropyridin-2-yl)-2-hydroxyethyl]-1,4,4a,5,6,7-hexahydrocyclopenta[f]indazol-5-ol]",20.8

# The remaining compounds from weak to strong by Ki, led by results:
row,Ki [nM],Structure (SMILES)
1,5.67,"CC[C@]12Cc3cnn(-c4ccc(F)cc4)c3C=C1CC[C@@]2(O)CC(O)c1cncc(F)c1 (stereo partly drawn) [Example 73, (4aS,5R)-4a-Ethyl-1-(4-fluorophenyl)-5-[2-(5-fluoropyridin-3-yl)-2-hydroxyethyl]-1,4,4a,5,6,7-hexahydrocyclopenta[f]indazol-5-ol]"
2,4.39,"CC[C@]12Cc3cnn(-c4ccc(F)cc4)c3C=C1CC[C@@]2(O)CC(O)c1ncccc1F (stereo partly drawn) [Example 77, (4aS,5R)-4a-Ethyl-1-(4-fluorophenyl)-5-[2-(3-fluoropyridin-2-yl)-2-hydroxyethyl]-1,4,4a,5,6,7-hexahydrocyclopenta[f]indazol-5-ol]"
3,2.97,"CC[C@]12Cc3cnn(-c4ccc(F)cc4)c3C=C1CC[C@@]2(O)CC1OC(=O)c2ccccc21 (stereo partly drawn) [Example 71, 3-{[(4aS,5R)-4a-Ethyl-1-(4-fluorophenyl)-5-hydroxy-1,4,4a,5,6,7-hexahydrocyclopenta[f]indazol-5-yl]methyl}-2-benzofuran-1(3H)-one]"
4,2.97,"CC[C@]12Cc3cnn(-c4ccccc4)c3C=C1CC[C@@]2(O)CC(O)c1cc(C#N)ccn1 (stereo partly drawn) [Example 75, 2-{2-[(4aS,5R)-4a-Ethyl-5-hydroxy-1-phenyl-1,4,4a,5,6,7-hexahydrocyclopenta[f]indazol-5-yl]-1-hydroxyethyl}pyridine-4-carbonitrile]"
5,2.96,"OC(C[C@]1(O)CCC2=Cc3c(cnn3-c3ccc(F)cc3)C[C@@]21C1CC1)c1ccccn1 (stereo partly drawn) [Example 78, (4aR,5R)-4a-Cyclopropyl-1-(4-fluorophenyl)-5-[2-hydroxy-2-(pyridin-2-yl)ethyl]-1,4,4a,5,6,7-hexahydrocyclopenta[f]indazol-5-ol]"
6,2.72,"CC[C@]12Cc3cnn(-c4ccc(F)cc4)c3C=C1CC[C@@]2(O)CC(O)c1ccccn1 (stereo partly drawn) [Example 68, (4aS,5R)-4a-Ethyl-1-(4-fluorophenyl)-5-[2-hydroxy-2-(pyridin-2-yl)ethyl]-1,4,4a,5,6,7-hexahydrocyclopenta[f]indazol-5-ol]"
